Here are results for five compounds from patent publication US12656355B2, “Two phase indicator displacement assay” (The Florida State University Research Foundation, Inc., priority 2022, dated 2026).

Holding throughout (type): physicochemical
A short description of series [1]: Surfactant mediated selective dye partitioning octanol/water in tubes (non-equilibrated). The note with it: mixture of red and blue dye in water, 4-48 hours. On the procedure:
Herein, detecting selective partitioning into droplets in a microfluidic device was scaled up to millimeter volumes in tubes, as shown in FIGS. 15A-15B and FIGS. 16A-16B. The selective partitioning behavior of the two dyes between the octanol and water phases was studied in test tubes (FIGS. 15A-15B), and dye concentrations quantified optically. First, solutions of CTAB in octanol and both dyes in water were prepared separately. Then both the aqueous and organic solutions were combined into one tube. After some time, one or both dyes partitioned into the organic phase. […] Due to the larger scale of the experiment, it took between 4-48 hours to observe the selectivity, as compared to 1-10 minutes in the microfluidic setup. (Bell, 2020.) A question about the mechanism of this surfactant mediated molecular recognition was then whether one dye is thermodynamically favored to partition into the octanol in the presence of CTAB or whether it is kinetically driven. […]
Erioglaucine disodium salt (Blue 1) was purchased from Sigma-Aldrich (St. Louis, MO, USA). […] The dye concentrations are chosen such that once this criterion is met, there will be enough dye left in the aqueous phase to be detected by a spectrophotometer so that the aqueous phase solution will have concentrations of 1700 uM, 850 uM, 425 uM, 213 uM, 106 uM for both red 40 dye and blue 1 dye.

Series [2] is described as follows: Cross-polarized microscopy of CTAB containing octanol droplets exposed to aqueous dye. The note with it: for anisotropic phase (birefringent ring) formation, single-dye system: 400 uM red dye only or 50 uM blue dye only, CTAB drops 7.5-60 mM, ring at 30 mM CTAB or higher; for birefringent phase formation under crossed polarizers: CTAB containing droplet arrays exposed to dye (FIGS. 6A-6B). The procedure:
Also, it can be observed that there is formation of an anisotropic phase in the 30 mM CTAB drops in the red and blue dye and the red dye only systems before the red dye fully partitions into the organic phase of the drop around 5 minutes. After 5 minutes, as the red dye continues to partition into the organic phase, this anisotropic phase seems to disappear. This can be observed by observing the absence of the anisotropic phase at 10 minutes and all later times for the 30 mM CTAB drops in the red and blue dye and the red dye only systems. […] This pattern of anisotropic phase formation before the red dye partitions supports the kinetic barrier mechanism which depends on the formation of some anisotropic phase on the interface of the drops with high CTAB concentration that hinders the red dye from partitioning in and allows the blue dye to partition in at a faster rate resulting in the observed high CTAB concentration blue dye selectivity and the low CTAB concentration red dye selectivity in the Bell, 2020 study.
Erioglaucine disodium salt (Blue 1) was purchased from Sigma-Aldrich (St. Louis, MO, USA). Allura red AC (Red 40) was obtained from TCI (Tokyo, Japan). For the birefringent ring experiments shown in FIG. 3, 400 uM red 40 dye and 50 uM blue 1 dye were dissolved in D.I. water. For the equilibrium tube experiment, dye concentrations were chosen based on the assumption that one dye molecule can be sequestered for every two CTAB molecules. The dye concentrations are chosen such that once this criterion is met, there will be enough dye left in the aqueous phase to be detected by a spectrophotometer so that the aqueous phase solution will have concentrations of 1700 uM, 850 uM, 425 uM, 213 uM, 106 uM for both red 40 dye and blue 1 dye.
The different lipid solutions were microarrayed using 0.1-10 μL disposable sterile pipet tips (VWR) directly onto the substrate. Drops were 0.1 uL in volume and only had contact with the bottom glass slide. After tapping the microarray onto the substrate, 0.3 mm thick PDMS was used as a spacer between the substrate and the cover. The two spacers will be fixed 1.8 cm apart onto the substrate. The coverslip will be placed carefully onto two spacers. Microscope slides manufactured by Azer Scientific (Unifrost) will be used as substrates. Microscope cover glasses (25 mm Å˜25 mm) manufactured by VWR will be used as slipcovers. Approximately 130 μL of aqueous solution was added to the right side of the flow cell and moved quickly through the flow cell. Prior to experiments, test samples will be incubated in 1 mL of deionized water to test for stability.
The blue 1 dye and red 40 dye used wavelengths of 629 nm and 501 nm respectively for absorbance measurements. Microarray samples requiring 30 min or less were imaged with a digital microscope (Dino-Lite Pro2 AD-413T or Dino-Lite Edge AM4115ZT) at 100 Å˜ magnification. For imaging lipid microarrays, a portable backlight stage (Dino-Lite MSBL-ZW1R) was used as a white light source and positioned under the bottom of the slide to illuminate the sample.

A short description of series [3]: Equilibrium dye partitioning octanol/water with CTAB (tubes, absorbance of aqueous phase). Conditions: for stoichiometric ratio, CTAB molecules needed to extract each dye molecule: calculated from dye left in the water after extraction, where not all dye was extracted. The text has this: To examine the dye partitioning at equilibrium, the two-phase system at various CTAB concentrations, samples were left on a shaker for one week followed by centrifugation and optical characterization of the aqueous phase by absorbance spectroscopy (FIGS. 16A-16B). Tubes containing only the red dye and only blue dye were included in the experiment as well as tubes with the dye mixture. […] CTAB has a net charge of +1 whereas both dye molecules have a net charge of −2. Thus, two positively charged CTAB can effectively balance the negative charge of the dye molecules resulting in a zero net charge for a complex of two CTAB and one dye molecule.
In order to further study the equilibrium state at high CTAB concentrations, the setup was used to allow for observation of the equilibrated state at high CTAB concentrations with excess dye in the water. Using the previously calculated dye ratios needed for maximum saturation in the organic phase, the dye concentrations were chosen so that it would be impossible for both red and blue dye to fully partition into the organic phase. Tubes with a range of concentration from 3.75 mM to 60 mM CTAB dissolved in octanol and deionized water with blue and red dye concentrations ranging from 106 μM to 1700 μM. By observing which dye is left in the aqueous phase after equilibrium is reached, it can be determined which dye is more thermodynamically favorable in the organic phase at equilibrium. If the mechanism for the blue dye selectivity at high CTAB concentrations is thermodynamic in nature and depends on the formation of micelles in the organic phase, then at high CTAB concentrations the dye remaining in the aqueous phase should be the red dye and at low CTAB concentrations, the dye remaining in the aqueous phase should be the blue dye. However, if the mechanism is kinetic and relies on the formation of an aggregation phase at the interface of the two phases, then at all concentrations of CTAB the dye remaining in the aqueous phase should be the blue dye. […] From this it was concluded that the red dye is thermodynamically favored to partition into the CTAB containing organic phase.
Erioglaucine disodium salt (Blue 1) was purchased from Sigma-Aldrich (St. Louis, MO, USA). Allura red AC (Red 40) was obtained from TCI (Tokyo, Japan). […] The dye concentrations are chosen such that once this criterion is met, there will be enough dye left in the aqueous phase to be detected by a spectrophotometer so that the aqueous phase solution will have concentrations of 1700 uM, 850 uM, 425 uM, 213 uM, 106 uM for both red 40 dye and blue 1 dye. […]
The blue 1 dye and red 40 dye used wavelengths of 629 nm and 501 nm respectively for absorbance measurements. […]

A short description of series [4]: Partitioning indicator displacement assay (PIDA), CTAB/octanol drops with blue 1 dye indicator. The text has this:
The organic drops with fully dissolved indicator were exposed to an aqueous phase containing the target analyte. Over time the target analyte displaced the indicator and partitioned into the organic phase. In this experiment, the sensor had various concentrations of CTAB dissolved into the organic phase and used the maximum saturation ratio of blue dye to CTAB (Mechanism paper) to saturate each organic phase solution with the indicator, blue FCF dye. The displacement of blue dye from the organic phase was measured by monitoring optical transmittance using a color camera.
Five concentrations (60 mM, 30 mM, 15 mM, 7.5 mM, and 3.75 mM) of CTAB in octanol were placed in a tube along with 50 μM of blue dye dissolved in D.I. water, set on a shaker and allowed to equilibrate. An array was made with a sample of each concentration with the blue dye; with 11 drops (replicates) of each concentration and viewed using a DinoLite microscope. Four-hundred μM of aqueous red dye was flowed into the array and a picture was taken before addition of red dye and then every 5 seconds over a 15 minute period. […] Images were analyzed in imageJ, using […] within each replicate and 25 points for background analysis. The replicates were then separated by channel as gray values of the micrographs, and data normalized into absorbance values by subtracting the original dye free data from each replicate. The replicates were averaged per concentration and the data was transferred into percent transmittance using the formula […].
The organic solute cetyltrimethylammonium bromide (CTAB) was purchased from Sigma-Aldrich (St. Louis, USA). Erioglaucine disodium salt (Blue 1) was purchased from Sigma-Aldrich (St. Louis, MO, USA). 10 mL of 6 mM, 3 mM, 1.5 mM, 0.75 mM, and 0.375 mM blue 1 dye dissolved in deionized water and added to separate tubes containing 2 mL of different concentrations of CTAB in octanol (60 mM, 30 mM, 15 mM, 7.5 mM, and 3.75 mM), set on a shaker and allowed to equilibrate. After equilibrating for one week, the organic layer of each CTAB concentration containing the blue 1 dye was used to make the microarray.
50 nL octanol drops containing CTAB and blue 1 dye were placed onto microscope slides manufactured by Azer Scientific (Unifrost) using 0.1-10 μL disposable sterile pipet tips (VWR). A barrier of 0.3 mm PDMS was used as a spacer between the slide and cover slip (25 mm×25 mm) manufactured by VWR. Approximately 135 μL of analyte solution was added to the flow cell and moved quickly through the flow cell.
Samples were imaged with a digital microscope (Dino-Lite Pro2 AD-413T or Dino-Lite Edge AM4115ZT) at 100 Å˜ magnification. For imaging PIDA assays, a portable backlight stage (Dino-Lite MSBL-ZW1R) was used as a white light source and positioned under the bottom of the slide to illuminate the sample. Images for measurement of the transmittance were captured in brightfield mode. The time dependent partitioning was recorded at one frame per 20 second intervals.
Images were analyzed in imageJ, using 10 points within each replicate and 25 points for background analysis. The replicates were then separated into different RGB channels as gray values of the micrographs. The data was then normalized into transmittance values by subtracting the original dye free data from each replicate. The data was then converted into absorbance using the formula […]. Using the absorbance data, and the measured initial blue dye concentrations, the data was converted to blue dye concentration and then the replicates were averaged per concentration and the standard deviation was calculated. Graphs showing the separate channels of the micrographs, with the red color (b) or blue color (e) that was viewable with the DinoLite, and how they differed with concentration (B and E). The graphs are made from each of the 5 concentrations with their associated normalized absorbance values. […]

[5] abbreviates: 3.75 mM CTAB drops, blue 1 dye indicator, red 40 dye analyte, from TRF fitting.

Regarding `CCN(Cc1cccc(S(=O)(=O)[O-])c1)c1ccc(C(=C2C=CC(=[N+](CC)Cc3cccc(S(=O)(=O)[O-])c3)C=C2)c2ccccc2S(=O)(=O)[O-])cc1.[Na+].[Na+]` [blue dye, Erioglaucine disodium salt], the “selective partitioning into the octanol phase” value in series [1] (high CTAB concentrations (30 mM and 60 mM) in octanol) was “selectively partitioned into the octanol phase”. For the same compound, the “anisotropic phase (birefringent ring) formation, single-dye system” value is “no anisotropic phase formation” in series [2] (disodium salt) and “doesn't cause a ring” in series [2] (listed as Blue Dye, disodium salt). In addition, the “stoichiometric ratio, CTAB molecules needed to extract each dye molecule” value in series [3] is “approximately 2”.

On to `CCCCCCCCCCCCCCCC[N+](C)(C)C.[Br-]` [CTAB, cetyltrimethylammonium bromide], for which the “delay in onset time of displacement” value in series [4] (setting [5]) is “no delay in onset time”. For the same compound, the “rate of displacement (decay constant)” value came to 0.48 s⁻¹ in series [4] (setting [5]) and 0.42 s⁻¹ in series [4] (7.5 mM CTAB drops, blue 1 dye indicator, red 40 dye analyte, from TRF fitting). Also, in series [4] (30 mM CTAB drops, blue 1 dye indicator, red 40 dye analyte, from TRF fitting), the “delayed onset time of displacement” value was 7.76 min. Also, in series [4] (30 mM CTAB, blue 1 dye indicator, red 40 dye analyte, from TRF fitting), the displacement rate turned out to be 0.07 s⁻¹.

As for `COc1cc(S(=O)(=O)[O-])c(C)cc1N=Nc1c(O)ccc2cc(S(=O)(=O)[O-])ccc12.[Na+].[Na+]` [red dye, Allura red AC], the “selective partitioning into the octanol phase” value in series [1] (CTAB 0.5 mM and 1 mM in octanol) is “selectively partitioned into the octanol phase”. For the same compound, the “anisotropic phase (birefringent ring) formation, single-dye system” value in series [2] is “formation of an anisotropic structure”; in series [2] (listed as Allura Red Dye), “causes a ring”. Further, the “birefringent phase formation under crossed polarizers” value in series [2] is on record as “birefringent phase forming”. Besides, in series [3] (3.75 mM to 60 mM CTAB in octanol, blue and red dye 106 μM to 1700 μM, all concentrations tested), the “partitioning at equilibrium with excess dye in the water” value is “preferentially partition into the organic phase”. Further, the “stoichiometric ratio, CTAB molecules needed to extract each dye molecule” value in series [3] is recorded as “approximately 2”. Also, in series [3] (low CTAB concentration (<15 mM), shaker one week), the partitioning at equilibrium entry is listed as “partitioned into the octanol phase”.

Consider `O=S(=O)([O-])c1ccc(N=Nc2c(O)ccc3cc(S(=O)(=O)[O-])ccc23)cc1.[Na+].[Na+]` [Sunset Yellow FCF], for which the “birefringent phase formation under crossed polarizers” value in series [2] is “not”.

`[Cl-].[Na+]` [sodium chloride]: the “blue dye indicator displaced” value in series [4] (50 mM analyte, after 10 minutes, 7.5 mM CTAB containing octanol drops (FIG. 7B)) is on record as approximately 48.3%.
